Results: the supplement of paper PMC10307832

Columns and labels:
Experiment in all cases: relative viability (nuclei count vs DMSO), 5 days (fraction); higher = more cells survive
Obatoclax + Linsitinib = compound: COC1=CC(c2cc3ccccc3[nH]2)=N/C1=C\c1[nH]c(C)cc1C [Obatoclax] + C[C@]1(O)C[C@@H](c2nc(-c3ccc4ccc(-c5ccccc5)nc4c3)c3c(N)nccn32)C1 [Linsitinib] (partner 1 µM)
In short: (§1)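 Nuclei were stained with Hoechst during a one-step fixation (final 0.05% Triton X-100, 1% formaldehyde, 1 ug/ml Hoechst) carried out 5 days after dosing, then counted on 4× images. The cells, lung cancer lines in 1536-well plates, had been dosed by pin tool the day after seeding with one drug alone or a fixed anchor-drug dose plus five library-drug doses (not always all listed) in √10 steps. Relative viability is the nuclei count in treated wells divided by that in vehicle wells, and each value is the median of duplicate plates.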

Obatoclax + Palbociclib = compound: COC1=CC(c2cc3ccccc3[nH]2)=N/C1=C\c1[nH]c(C)cc1C [Obatoclax] + CC(=O)c1c(C)c2cnc(Nc3ccc(N4CCNCC4)cn3)nc2n(C2CCCC2)c1=O [Palbociclib] (partner 0.5 µM)
In short: as §1

Bortezomib + Trametinib = compound: CC(C)C[C@H](NC(=O)[C@H](Cc1ccccc1)NC(=O)c1cnccn1)B(O)O [Bortezomib] + CC(=O)Nc1cccc(-n2c(=O)n(C3CC3)c(=O)c3c(Nc4ccc(I)cc4F)n(C)c(=O)c(C)c32)c1 [Trametinib] (partner 0.02 µM)
In short: as §1

[1] = compound: CC1=CC(=NN1)NC2=CC(=NC(=N2)/C=C/C3=CC=CC=C3)N4CCN(CC4)C + CS(=O)(=O)N1CCN(Cc2cc3nc(-c4cccc5[nH]ncc45)nc(N4CCOCC4)c3s2)CC1 [Pictilisib] (partner 1 µM)
In short: as §1

| Cell Line | relative viability (Obatoclax + Linsitinib; first compound 0.01 µM) | relative viability (Obatoclax + Linsitinib; first compound 0.03162 µM) | relative viability (Obatoclax + Linsitinib; first compound 0.3162 µM) | relative viability (Obatoclax + Linsitinib; first compound 1 µM) | relative viability (Obatoclax + Palbociclib; first compound 0.01 µM) | relative viability (Obatoclax + Palbociclib; first compound 0.03162 µM) | relative viability (Obatoclax + Palbociclib; first compound 0.3162 µM) | relative viability (Obatoclax + Palbociclib; first compound 1 µM) | relative viability (Bortezomib + Trametinib; first compound 0.0002 µM) | relative viability (Bortezomib + Trametinib; first compound 0.000632 µM) | relative viability (Bortezomib + Trametinib; first compound 0.002 µM) | relative viability (Bortezomib + Trametinib; first compound 0.006325 µM) | relative viability (Bortezomib + Trametinib; first compound 0.02 µM) | relative viability ([1]; first compound 0.08 µM) | relative viability ([1]; first compound 0.253 µM) | relative viability ([1]; first compound 0.8 µM) | relative viability ([1]; first compound 2.53 µM) | relative viability ([1]; first compound 8 µM) | relative viability (Obatoclax + Linsitinib; first compound 0.1 µM) | relative viability (Obatoclax + Palbociclib; first compound 0.1 µM) |
| --- | --- | --- | --- | --- | --- | --- | --- | --- | --- | --- | --- | --- | --- | --- | --- | --- | --- | --- | --- | --- |
| NCI-H2405 | 0.936 | 1.11 | 0.866 | 0.87 | 0.578 | 0.545 | 0.541 | 0.434 | 0.579 | 0.646 | 0.523 | 0.223 | 0.188 | 0.473 | 0.32 | 0.452 | 0.179 | 0.133 |  |  |
| NCI-H3122 | 1.01 | 1.02 | 0.97 | 1.01 | 0.185 | 0.185 | 0.224 | 0.179 | 0.215 | 0.276 | 0.222 | 0.232 | 0.124 | 0.588 | 0.345 | 0.659 | 0.428 | 0.291 | 1.04 | 0.277 |
| PC-3 [JPC-3] | 0.947 | 0.936 | 0.989 | 0.898 | 0.497 | 0.515 | 0.406 | 0.33 | 0.639 | 0.756 | 0.41 | 0.252 | 0.202 | 0.763 | 0.721 | 0.706 | 0.648 | 0.579 | 0.963 | 0.503 |
| PC-14 | 0.911 | 1.01 | 0.902 | 0.58 | 0.453 | 0.489 | 0.0534 | 0.055 | 0.788 | 0.799 | 0.356 | 0.0475 | 0.0434 | 0.651 | 0.635 | 0.56 | 0.199 | 0.0209 | 0.892 | 0.411 |
| RERF-LC-KJ | 0.884 | 0.947 | 0.868 | 0.808 | 0.909 | 1.06 | 0.957 | 0.892 | 0.868 | 0.863 | 0.823 | 0.395 | 0.199 | 0.593 | 0.519 | 0.495 | 0.27 | 0.168 | 0.871 | 1.09 |
| SK-LU-1 | 1.18 | 1.17 | 0.496 | 0.419 | 0.367 | 0.419 | 0.326 | 0.317 | 0.505 | 0.436 | 0.43 | 0.202 | 0.173 | 0.595 | 0.587 | 0.56 | 0.285 | 0.0825 | 0.834 | 0.352 |
| SK-MES-1 | 0.991 | 1.1 | 0.98 | 0.687 | 0.295 | 0.329 | 0.181 | 0.203 | 0.506 | 0.546 | 0.533 | 0.215 | 0.158 | 0.341 | 0.357 | 0.279 | 0.168 | 0.134 | 1.09 | 0.247 |
| SW 1573 | 0.768 | 0.832 | 0.801 | 0.81 | 0.379 | 0.35 | 0.118 | 0.133 | 0.55 | 0.612 | 0.291 | 0.074 | 0.0469 | 0.478 | 0.478 | 0.393 | 0.179 | 0.0655 | 0.803 | 0.298 |
| UMC-11 | 1.04 | 0.875 | 0.81 | 0.885 | 0.373 | 0.346 | 0.322 | 0.373 | 0.731 | 0.845 | 0.574 | 0.296 | 0.132 | 0.79 | 0.813 | 0.606 | 0.158 | 0.108 | 0.981 | 0.33 |
